The text below walks through data of PMC3161154 (Journal of the American Chemical Society, 2011).

The test system of one series is LNCap. Nature of the series: cytotoxicity, LNCap. The format is cell-based. Particulars: read-out: LNCap (nM), cytotoxicity.
The subject of the next series is MDA-468. Nature of the series: cytotoxicity, MDA-468. Particulars: read-out: MDA-468 (nM), cytotoxicity. The format is cell-based.
The target in a further series is mTOR (Homo sapiens, UniProt P42345). Nature of the series: mTor kinase inhibition. Format: biochemical. Particulars: read-out: mTOR (nM), mTor kinase inhibition.
Series [1] has as its target phosphatidylinositol 3-kinase. Particulars: read-out: IC50 phosphatidylinositol 3-kinase; cited from earlier work.
In a further series the target is lymphocyte kinase. The conditions noted are these: read-out: IC50 lymphocyte kinase; cited from earlier work.

Turning to `CC[C@H](C)C(=O)Nc1cc(=N)c2ncc3cc(C(=O)C=COC)[nH]c1c32` [Compound 5, neolymphostin C], the values for the IC50 with LNCap, in the series on MDA-468 and at mTOR were 230 nM, 700 nM and 1.8 nM, respectively.

As to `COC=CC(=O)c1cc2cnc3c(=N)cc(NC(=O)CC(C)C)c([nH]1)c23` [Compound 6, neolymphostin D], the IC50 amounted to 230 nM in the series with LNCap, 700 nM in the series on MDA-468 and 1.8 nM at mTOR.

With `CCC(=O)Nc1cc(=N)c2ncc3cc(C(=O)C=COC)[nH]c1c32` [Compound 4, neolymphostin B], the results for the IC50 with LNCap, with MDA-468 and on mTOR were 48 nM, 85 nM and 1.5 nM, respectively.

Turning to `CO/C=C/C(=O)c1cc2cnc3c(=N)cc(NC(C)=O)c([nH]1)c23` [Compound 1, lymphostin], the IC50 was 38 nM with LNCap; 14 nM in the series on MDA-468; 1 nM in series [1]; 50 nM at lymphocyte kinase; 1.7 nM at mTOR.

With neolymphostin A [Compound 3], the values for the IC50 in the series with LNCap, in the series with MDA-468 and on mTOR were 22 nM, 58 nM and 0.8 nM, respectively.
